Data taken from patent publication US20200255828A1, “METHODS AND COMPOSITIONS FOR ALTERING FUNCTION AND STRUCTURE OF CHROMATIN LOOPS AND/OR DOMAINS” (THE BROAD INSTITUTE, INC., priority 2017, published 2020).
“Also recorded” adds a separate entry of the source.

Tests used:
[1] = test system: HCT-116 cells; experiment: Loop reformation (Hi-C APA) after Rad21 degradation and recovery without transcription, replication or ATP; format: cell-based, human; conditions: Rad21 temporarily degraded and allowed to recover
From the text: Using the degron system, Applicants can directly measure the influence of cellular processes on loop formation (Vian et al, 2018). […] Applicants also tested interchromasomal cohesin-independent links requirement for ATP after cohesin degradation and observed that depletion of ATP strengthens the interactions between superenhancers (FIG. 23).

[2] = test system: CTCF-AID cells; experiment: Rescue experiments in the CTCF-AID cell line (Hi-C); format: cell-based, human; conditions: endogenous CTCF degraded by auxin
From the text: The protein CTCF is thought to act as an oriented brake to halt cohesin-mediated loop extrusion in one direction along the genome but not the other, but how this braking activity is mediated mechanistically is unknown. An important question regarding CTCF barrier activity is whether there is a protein domain mediating the ability to halt extrusion or whether CTCF halts cohesin via steric occlusion. As a proof of principle, Applicants introduced either (i) WT CTCF, (ii) CTCF lacking its N terminal domain, or (iii) CTCF lacking its C terminal domain by transfection into CTCF-AID cells. […] Applicants can systematically identify the key residues in the N terminus of CTCF that are necessary for barrier activity by transfecting plasmids expressing mutant CTCF proteins with tiled mutations on the N terminus and assaying via Hi-C after degradation of endogenous CTCF. Similarly, Applicants can develop HCT-116 degron lines for SA1, SA2, and SA1+SA2 double degron (the cohesin ring co-factors that are thought to mediate the interaction between cohesin and CTCF). By depleting endogenous SA protein, introducing SA proteins with tiled mutations across various domains, and assaying looping via Hi-C, Applicants can similarly identify the residues on the cohesin complex required for interaction with CTCF. […]

| Molecule | effect on loop formation during Rad21 recovery [1] | rescue of the looping phenotype [2] |
| --- | --- | --- |
| CN1CC[C@H](c2c(O)cc(O)c3c(=O)cc(-c4ccccc4Cl)oc23)[C@H](O)C1 [flavopiridol] | does not block loop formation; also recorded: loop reformation occurs without issue |  |
| CC[C@H]1/C=C/C=C/C[C@@H](C)[C@H](O)[C@@](C)(O)C(=O)[C@@H](C)[C@H](O)[C@@H](C)C(=O)[C@@H](C)[C@H](O)[C@@H](C)/C=C/C(=O)O[C@@H]2[C@H](C)[C@H](CC1)O[C@]1(CC[C@H](C)[C@H](C[C@@H](C)O)O1)[C@H]2C [oligomycin] | does block loop formation; also recorded: loop formation requires ATP |  |
| Cc1cn([C@H]2C[C@H](O)[C@@H](CO)O2)c(=O)[nH]c1=O [thymidine] | does not block loop formation; also recorded: loop reformation occurs without issue |  |
| WT CTCF: wild-type CTCF introduced by transfection into CTCF-AID cells (protein) MEGDAVEAIVEESETFIKGKERKTYQRRREGGQEEDACHLPQNQTDGGEVVQDVNSSVQMVMMEQLDPTLLQMKTEVMEGTVAPEAEAAVDDTQIITLQVVNMEEQPINIGELQLVQVPVPVTVPVATTSVEELQGAYENEVSKEGLAESEPMICHTLPLPEGFQVVKVGANGEVETLEQGELPPQEDPSWQKDPDYQPPAKKTKKTKKSKLRYTEEGKDVDVSVYDFEEEQQEGLLSEVNAEKVVGNMKPPKPTKIKKKGVKKTFQCELCSYTCPRRSNLDRHMKSHTDERPHKCHLCGRAFRTVTLLRNHLNTHTGTRPHKCPDCDMAFVTSGELVRHRRYKHTHEKPFKCSMCDYASVEVSKLKRHIRSHTGERPFQCSLCSYASRDTYKLKRHMRTHSGEKPYECYICHARFTQSGTMKMHILQKHTENVAKFHCPHCDTVIARKSDLGVHLRKQHSYIEQGKKCRYCDAVFHERYALIQHQKSHKNEKRFKCDQCDYACRQERHMIMHKRTHTGEKPYACSHCDKTFRQKQLLDMHFKRYHDPNFVPAAFVCSKCGKTFTRRNTMARHADNCAGPDGVEGENGGETKKSKRGRKRKMRSKKEDSSDSENAEPDLDDNEDEEEPAVEIEPEPEPQPVTPAPPPAKKRRGRPPGRTNQPKQNQPTAIIQVEDQNTGAIENIIVEVKKEPDAEPAEGEEEEAQPAATDAPNGDLTPEMILSMMDR |  | rescue the looping phenotype |
